Measurements reported in patent publication EP2719696A1, “NOVEL KINASE INHIBITORS” (Asinex Limited, priority 2011, dated 2012).
Where two headings read alike, the source gives them in different places.

Key:
A172 = assay: MTT proliferation / cytotoxicity assay; format: cell-based, human; details: glioblastoma cell line
Protocol: (§1) Cell culture. The human cancer cell lines A172, A375, A2780 and U251 were purchased from the American Type Culture Collection. All cells were routinely maintained in DMEM containing 10% fetal bovine serum (Omega Scientific), at 37°C in 5% C02.
(§2) Proliferation assay Inhibition of cell A172, A375, A2780 and U251 cell proliferation was assessed by a MTT assay (MTT = Thiazolyl Blue Tetrazolium Bromide) . Cells were inoculated into 96-well microtiter plates containing 0.5% fetal calf serum and incubated at 37°C, 5% CO2, 95% air, and 100% relative humidity for 24 h prior to addition of testing compounds. Following compounds addition, the plates were incubated for an additional 72 h before processing to measure the cell population. Each compound was tested at eight different concentrations in triplicate, as was a control sample. Growth inhibition of 50% (IC50) is calculated by analysis of the data in Prizm3.4 software.
(§3) Table 8 lists IC50 values for inhibition of growth of several cancer cell lines, including the glioblastoma cell lines A172 and U251, measured in a MTT cytotoxicity assay. Table 8. Data of cytotoxicity assay (MTT) for several cancer cell lines, IC50 [µM]

A2780 = assay: MTT proliferation / cytotoxicity assay; format: cell-based, human
Protocol: as §1, §2, §3

A375 = assay: MTT proliferation / cytotoxicity assay; format: cell-based, human
Protocol: as §1, §2, §3

U251 = assay: MTT proliferation / cytotoxicity assay; format: cell-based, human; details: glioblastoma cell line
Protocol: as §1, §2, §3

PDGFR-α = PDGFR-α (Homo sapiens, UniProt P16234); assay: Kinase inhibition assay (ELISA); format: biochemical; details: 1 µM ATP
Sequence of PDGFR-α (P16234 24-1089, species assumed): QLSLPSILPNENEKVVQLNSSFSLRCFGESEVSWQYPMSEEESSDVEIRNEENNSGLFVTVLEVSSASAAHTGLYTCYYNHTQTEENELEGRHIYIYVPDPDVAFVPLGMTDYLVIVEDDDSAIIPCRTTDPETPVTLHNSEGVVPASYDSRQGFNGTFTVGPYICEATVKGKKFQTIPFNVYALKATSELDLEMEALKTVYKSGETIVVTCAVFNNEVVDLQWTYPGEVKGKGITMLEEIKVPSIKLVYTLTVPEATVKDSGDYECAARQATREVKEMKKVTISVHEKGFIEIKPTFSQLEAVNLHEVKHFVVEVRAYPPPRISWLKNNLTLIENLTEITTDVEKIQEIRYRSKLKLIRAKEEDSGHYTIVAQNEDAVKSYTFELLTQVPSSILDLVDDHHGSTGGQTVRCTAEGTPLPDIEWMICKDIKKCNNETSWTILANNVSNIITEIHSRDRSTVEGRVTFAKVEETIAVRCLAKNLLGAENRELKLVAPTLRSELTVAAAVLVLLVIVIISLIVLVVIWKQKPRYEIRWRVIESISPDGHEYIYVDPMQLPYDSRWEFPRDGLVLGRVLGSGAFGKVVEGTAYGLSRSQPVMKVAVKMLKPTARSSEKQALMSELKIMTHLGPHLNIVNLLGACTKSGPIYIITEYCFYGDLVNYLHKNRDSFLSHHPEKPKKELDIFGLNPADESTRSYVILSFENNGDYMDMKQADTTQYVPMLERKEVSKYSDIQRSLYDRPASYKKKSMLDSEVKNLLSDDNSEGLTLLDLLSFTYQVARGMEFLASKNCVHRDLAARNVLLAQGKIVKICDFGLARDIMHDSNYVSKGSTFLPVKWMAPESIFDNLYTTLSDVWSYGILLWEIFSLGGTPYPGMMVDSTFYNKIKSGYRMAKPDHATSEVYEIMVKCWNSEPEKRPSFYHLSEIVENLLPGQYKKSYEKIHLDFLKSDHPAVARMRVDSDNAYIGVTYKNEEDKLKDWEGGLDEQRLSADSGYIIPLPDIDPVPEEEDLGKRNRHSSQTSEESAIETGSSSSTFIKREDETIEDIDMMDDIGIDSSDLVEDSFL
Protocol: (§4) To determine the interaction of our compounds with tyrosine kinases: PDGFR-α, cKIT, PDGFR-β, VEGFR-2 we used enzyme-linked immunosorbent assay (ELISA).
(§5) Determination plates preparation: The plates are processed by neutravidine for 2 h at 30°C. After washing thrice with TBS/0.1% Tween-20 and blocking with 1% BSA/TBS for 1 h at room temperature (RT) 96-well microtiter plates were washed thrice with TBS/0.1% Tween-20 again.
(§6) Reaction: After addition test compounds (in DMSO, DMSO final concentration - 5%) to reaction buffer (20 mM HEPES, pH 7.5, 15 mM MgCl2, 3 mM MnCl2, 2 mM DTT, 0.2 mM Na3VO4, 0.005% Triton X-100; PDGFR-α,: 0.05 µg/ml, 0.5 µg/ml Poly(G,T)-biotin; PDGFR-β: 0.05 µg/ml, 1 µg/ml Poly(G,T)-biotin; c-KIT: 0.03 µg/ml, 0.15 µg/ml Poly(G,T)-biotin; VEGFR-2: 0.07 µg/ml, 0.05 µg/ml Poly(G,T)-biotin) and preincubation of reaction for 10 min at RT and intensive agitation, ATP solution (PDGFR-α, - 1 µM, PDGFR-β - 0.5 µM, c-KIT - 60 µM, VEGFR-2: - 1.5 µM ATP in reaction buffer per well) was added to initiate reaction. Following incubation of mixture for 1 h at 30°C and intensive agitation the reaction was stopped by stop solution (20 mM HEPES, pH 7.5, 50 mM EDTA).
(§7) Kinase activity determination: The reaction mixture was transferred to determination plate. After mix incubation for 1 h at RT and intensive agitation the plates were washed thrice with TBS/0.1% Tween-20. Following mouse monoclonal 0.05 µg/ml Anti-p-Tyr (PY20) HRP antibodies (Santa Cruz Biotechnology) in PBS/BSA were added for 1 h at RT and intensive agitation. After washing, antibody binding was detected by tetramethylbenzidine (TMB) color development (Sigma). Measurement of A450 nm was carried out after addition of H2SO4

VEGFR-2 = VEGFR-2 (Homo sapiens, UniProt P35968); assay: Kinase inhibition assay (ELISA); format: biochemical; details: 1.5 µM ATP
Sequence of VEGFR-2 (P35968 20-1356, species assumed): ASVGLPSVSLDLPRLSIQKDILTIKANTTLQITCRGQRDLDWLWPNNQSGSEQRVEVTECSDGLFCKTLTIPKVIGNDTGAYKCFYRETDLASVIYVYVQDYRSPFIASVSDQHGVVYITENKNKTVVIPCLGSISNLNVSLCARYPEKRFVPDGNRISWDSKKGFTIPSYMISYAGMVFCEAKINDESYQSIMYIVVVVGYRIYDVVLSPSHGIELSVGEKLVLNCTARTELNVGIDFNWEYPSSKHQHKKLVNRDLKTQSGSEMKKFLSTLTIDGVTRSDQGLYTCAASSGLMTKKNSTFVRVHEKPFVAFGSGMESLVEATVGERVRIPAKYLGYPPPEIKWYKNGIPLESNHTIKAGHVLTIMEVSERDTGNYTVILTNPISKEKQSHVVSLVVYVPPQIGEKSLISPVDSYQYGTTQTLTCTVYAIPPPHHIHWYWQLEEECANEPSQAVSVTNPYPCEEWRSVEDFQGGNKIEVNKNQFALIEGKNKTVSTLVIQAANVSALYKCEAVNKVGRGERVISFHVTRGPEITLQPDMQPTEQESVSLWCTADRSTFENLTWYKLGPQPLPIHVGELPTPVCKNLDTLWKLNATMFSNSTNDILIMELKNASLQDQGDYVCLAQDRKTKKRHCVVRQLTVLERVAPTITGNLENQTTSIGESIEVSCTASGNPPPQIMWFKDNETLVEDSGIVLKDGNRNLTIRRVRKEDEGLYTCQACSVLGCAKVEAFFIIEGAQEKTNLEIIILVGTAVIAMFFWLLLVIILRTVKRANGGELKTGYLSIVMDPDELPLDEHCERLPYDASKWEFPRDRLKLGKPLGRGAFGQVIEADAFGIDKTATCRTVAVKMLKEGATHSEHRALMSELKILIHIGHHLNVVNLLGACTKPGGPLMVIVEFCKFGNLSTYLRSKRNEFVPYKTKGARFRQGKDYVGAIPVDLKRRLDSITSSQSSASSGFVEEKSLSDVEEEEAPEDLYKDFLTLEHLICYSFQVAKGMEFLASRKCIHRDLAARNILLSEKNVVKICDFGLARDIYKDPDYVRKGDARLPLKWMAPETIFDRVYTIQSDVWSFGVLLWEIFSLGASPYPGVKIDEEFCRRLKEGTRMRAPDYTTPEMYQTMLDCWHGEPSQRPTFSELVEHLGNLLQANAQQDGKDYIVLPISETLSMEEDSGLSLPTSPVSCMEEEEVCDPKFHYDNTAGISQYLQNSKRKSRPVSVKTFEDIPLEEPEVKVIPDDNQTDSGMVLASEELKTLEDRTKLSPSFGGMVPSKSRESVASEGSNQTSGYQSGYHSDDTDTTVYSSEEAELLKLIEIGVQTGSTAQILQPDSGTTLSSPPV
Protocol: as §4, §5, §6, §7

cKIT = cKIT (Homo sapiens, UniProt P10721); assay: Kinase inhibition assay (ELISA); format: biochemical; details: 60 µM ATP
Sequence of cKIT (P10721 26-976): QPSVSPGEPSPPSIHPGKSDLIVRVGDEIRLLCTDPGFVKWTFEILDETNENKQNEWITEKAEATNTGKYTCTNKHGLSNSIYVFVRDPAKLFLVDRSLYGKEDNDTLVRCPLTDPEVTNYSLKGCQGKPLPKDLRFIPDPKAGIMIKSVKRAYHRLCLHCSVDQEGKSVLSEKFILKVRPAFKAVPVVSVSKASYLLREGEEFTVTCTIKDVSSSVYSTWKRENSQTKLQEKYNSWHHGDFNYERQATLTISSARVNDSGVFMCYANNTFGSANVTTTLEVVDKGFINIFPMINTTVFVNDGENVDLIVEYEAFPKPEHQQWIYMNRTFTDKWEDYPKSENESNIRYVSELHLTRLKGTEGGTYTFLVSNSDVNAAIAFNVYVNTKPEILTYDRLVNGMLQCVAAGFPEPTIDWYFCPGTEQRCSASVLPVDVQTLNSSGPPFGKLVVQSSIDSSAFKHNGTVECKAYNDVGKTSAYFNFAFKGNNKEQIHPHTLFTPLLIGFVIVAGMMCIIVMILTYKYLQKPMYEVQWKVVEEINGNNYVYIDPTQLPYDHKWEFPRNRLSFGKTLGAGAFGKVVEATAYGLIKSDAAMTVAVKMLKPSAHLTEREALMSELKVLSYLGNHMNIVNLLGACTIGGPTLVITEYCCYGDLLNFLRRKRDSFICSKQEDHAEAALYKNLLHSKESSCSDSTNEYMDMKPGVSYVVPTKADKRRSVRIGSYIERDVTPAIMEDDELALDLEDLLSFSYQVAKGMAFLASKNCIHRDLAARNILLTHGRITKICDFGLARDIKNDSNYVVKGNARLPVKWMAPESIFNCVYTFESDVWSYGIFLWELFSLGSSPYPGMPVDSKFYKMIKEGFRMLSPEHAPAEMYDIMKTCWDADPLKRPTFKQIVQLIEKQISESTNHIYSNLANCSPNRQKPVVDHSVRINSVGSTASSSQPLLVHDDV
Protocol: as §4, §5, §6, §7

[1] = In vivo PK study, determination of brain-to-plasma ratio; details: mouse, SHK mice, PO dosing 5mg/kg, 20% water solution of HPβCD, read-out: brain-to-plasma concentration ratio
Protocol: Male SHK mice (22-25 g) were dosed with 5 mg/kg of related compounds as a single injection via oral gavage (formulated in 20% water solution of HPβCD). Blood samples and whole brains were collected from three mice at each of eight collection time points of 0.05, 0.25, 0.5, 1, 2, 4, 8 and 24 h post dose. Plasma was collected from blood samples, and whole brain samples were homogenized in three volumes of water. Both tissues were analyzed for concentrations of related compounds by liquid chromatography-mass spectrometry (LC-MS/MS). Table 9. brain-to-plasma concentration ratios in SHK mice after PO dosing 5mg/kg for several selected examples

Molecule	IC50 (PDGFR-α)	IC50 (VEGFR-2)	IC50 (cKIT)	Kp ([1]; male, brain/plasma)	IC50 (A172; Homo sapiens, A 172, 72 h)	IC50 (A2780; Homo sapiens, A2780, 72 h)	IC50 (A375; Homo sapiens, A-375, 72 h)	IC50 (U251; Homo sapiens, U-251, 72 h)	Kp ([1]; brain)	IC50 (A172; 72 h)	IC50 (A2780; 72 h)	IC50 (A375; 72 h)	IC50 (U251; 72 h)
CS(=O)(=O)N1CCC(Cc2ccnc(Nc3ncc(-c4ccc(F)cc4)s3)c2)CC1 [Example 005, [5-(4-Fluoro-phenyl)-thiazol-2-yl]-[4-(1-methanesulfonyl-piperidin-4-ylmethyl)-pyridin-2-yl]-amine]	< 10 nM	> 10 nM	> 10 nM		> 1 µM	> 1 µM	> 1 µM	> 10 µM					
Fc1ccc(-c2cnc(Nc3cccc(CC4CCCNCC4)n3)s2)cc1 (centres unmarked) [Example 006, (6-Azepan-4-ylmethyl-pyridin-2-yl)-[5-(4-fluoro-phenyl)-thiazol-2-yl]-amine]	> 10 nM	> 100 nM	> 10 nM		> 1 µM	≤ 1 µM	≤ 1 µM	> 1 µM					
CC(=O)N1CCCC(Cc2cccc(Nc3ncc(-c4ccc(F)cc4)s3)n2)CC1 (centres unmarked) [Example 007, 1-(4-{6-[5-(4-Fluoro-phenyl)-thiazol-2-ylamino]-pyridin-2-ylmethyl}-azepan-1-yl)-ethanone]	> 10 nM	> 100 nM	> 10 nM		> 1 µM	> 1 µM	> 1 µM	> 1 µM					
CN1CCCC(Cc2cccc(Nc3ncc(-c4ccc(F)cc4)s3)n2)CC1 (centres unmarked) [Example 008, [5-(4-Fluoro-phenyl)-thiazol-2-yl]-[6-(1-methyl-azepan-4-ylmethyl)-pyridin-2-yl]-amine]	> 10 nM	> 1000 nM	> 10 nM		> 10 µM	> 1 µM	> 1 µM	> 1 µM					
CC(=O)N1CCOCC(Cc2ccnc(Nc3ncc(-c4ccc(F)cc4)s3)c2)C1 (centres unmarked) [Example 012, 1-(6-{2-[5-(4-Fluoro-phenyl)-thiazol-2-ylamino]-pyridin-4-ylmethyl}-[1,4]oxazepan-4-yl)-ethanone]	< 10 nM	> 10 nM	> 10 nM		> 1 µM	> 1 µM	> 1 µM	> 10 µM					
c1ccc(-c2cnc(Nc3cc(CCC4CCCN4)ccn3)s2)cc1 (centres unmarked) [Example 015, (5-Phenyl-thiazol-2-yl)-[4-(2-pyrrolidin-2-yl-ethyl)-pyridin-2-yl]-amine]	< 10 nM	> 10 nM	> 100 nM		> 1 µM	> 1 µM	> 1 µM	> 10 µM					
Fc1ccc(-c2cnc(Nc3cc(CC4CCCC5CNCC54)ccn3)s2)cc1 (centres unmarked) [Example 017, [5-(4-Fluoro-phenyl)-thiazol-2-yl]-[4-(octahydro-isoindol-4-ylmethyl)-pyridin-2-yl]-amine]	< 10 nM	> 10 nM	< 10 nM	0.28	> 1 µM	< 1 µM							
c1ccc(-c2cnc(Nc3cccc(CC4CC5CCC(C4)N5)n3)s2)cc1 (centres unmarked) [Example 022, [6-(8-Aza-bicy-clo[3.2.1]oct-3-ylmethyl)-pyridin-2-yl]-(5-phenyl-thiazol-2-yl)-amine]	> 10 nM	> 100 nM	> 10 nM		> 1 µM	≤ 1 µM	≤ 1 µM	> 1 µM					
COC(=O)C1CC(Cc2ccnc(Nc3ncc(-c4ccccc4)s3)c2)CC1N (centres unmarked) [Example 023, 2-Amino-4-[2-(5-phenyl-thiazol-2-ylamino)-pyridin-4-ylmethyl]-cyclopentanecar-boxylic acid methyl ester]	< 10 nM	> 10 nM	< 10 nM		> 1 µM	> 1 µM			0.78				
c1ccc(-c2cnc(Nc3cc(C4CCCNC4)ccn3)s2)cc1 (centres unmarked) [Example 028, (1,2,3,4,5,6-Hexahydro-[3,4']bipyridinyl-2'-yl)-(5-phenyl-thiazol-2-yl)-amine]	< 10 nM	32 nM	> 100 nM		> 1 µM	> 1 µM	> 10 µM	> 10 µM					
[5-(4-Fluoro-phenyl)-thiazol-2-yl]-[6-(octahydro-isoindol-4-ylmethyl)-pyridin-2-yl]-amine [Example 021]	> 10 nM	> 100 nM	> 10 nM							> 1 µM	> 1 µM	> 1 µM	> 1 µM

Continued, in another order:

IC50 (PDGFR-α)	IC50 (VEGFR-2)	IC50 (cKIT)	Kp ([1]; male, brain/plasma)	Molecule	IC50 (A172; Homo sapiens, A 172, 72 h)	IC50 (A2780; Homo sapiens, A2780, 72 h)	IC50 (A375; Homo sapiens, A-375, 72 h)	IC50 (U251; Homo sapiens, U-251, 72 h)	Kp ([1]; brain)	IC50 (A172; 72 h)	IC50 (A2780; 72 h)	IC50 (A375; 72 h)	IC50 (U251; 72 h)
> 10 nM	> 100 nM	> 100 nM		OCCN1CCC(c2cc(Nc3ncc(-c4ccccc4)s3)ccn2)CC1 [Example 033, 2-[4-(5-Phenyl-thiazol-2-ylamino)-3',4',5',6'-tetrahydro-2'H-[2,4']bipyridinyl-1'-yl]-ethanol]	> 10 µM	> 10 µM	> 10 µM	> 10 µM					
< 10 nM	> 10 nM	< 10 nM	1.79	OCC(O)CN1CCC(c2ccnc(Nc3ncc(-c4ccc(F)cc4)s3)c2)CC1 (centres unmarked) [Example 034, 3-{2'-[5-(4-Fluoro-phenyl)-thiazol-2-ylamino]-3,4,5,6-tetrahydro-2H-[4,4']bipyridinyl-1-yl}-propane-1,2-diol]	> 1 µM	> 10 µM							
< 10 nM	> 10 nM	< 10 nM		OCCN1CCC(c2ccnc(Nc3ncc(-c4ccccc4F)s3)c2)CC1 [Example 036, 2-{2'-[5-(2-Fluoro-phenyl)-thiazol-2-ylamino]-3,4,5,6-tetrahydro-2H-[4,4']bipyridinyl-1-yl}-ethanol]	> 10 µM	> 1 µM	> 1 µM	> 1 µM					
< 10 nM	> 10 nM	< 10 nM		OCCN1CCC(c2ccnc(Nc3ncc(-c4cccc(F)c4)s3)c2)CC1 [Example 037, 2-{2'-[5-(3-Fluoro-phenyl)-thiazol-2-ylamino]-3,4,5,6-tetrahydro-2H-[4,4']bipyridinyl-1-yl}-ethanol]	> 10 µM	> 1 µM	> 10 µM	> 1 µM					
< 10 nM	> 10 nM	> 10 nM		OCCN1CCC(c2ccnc(Nc3ncc(-c4ccc(F)c(F)c4)s3)c2)CC1 [Example 038, 2-{2'-[5-(3,4-Difluoro-phenyl)-thiazol-2-ylamino]-3,4,5,6-tetrahydro-2H-[4,4']bipyridinyl-1-yl}-ethanol]	≤ 1 µM	> 10 µM	> 1 µM	> 1 µM					
< 10 nM	> 10 nM	> 10 nM		OCCN1CCC(c2ccnc(Nc3ncc(-c4cc(F)cc(F)c4)s3)c2)CC1 [Example 039, 2-{2'-[5-(3,5-Difluoro-phenyl)-thiazol-2-ylamino]-3,4,5,6-tetrahydro-2H-[4,4']bipyridinyl-1-yl}-ethanol]	> 1 µM	> 10 µM	> 1 µM	> 10 µM					
